Values after ≈ are worked out from the molar mass of the structure shown. Like-named read-outs stand apart in the source and are kept apart here.
Legend:
gastric acid secretion [1] = assay: Inhibiting effect of gastric acid secretion, pylorus-ligated rat (Shay); assay type: in vivo; settings: pylorus ligation, injected into duodenum, 5 hours
Method: (§1) Inhibiting effect of gastric acid secretion
Under anesthesia by ether, the abdomen of the rat was incised in its median and a pylorus was ligated with silk thread according to Shay (Gastroenterology 5, 43 (1945)). Simultaneously, the compound was injected into a duodenum of the rat and then the incision was closed.
Five hours later, the median-incision of the abdomen was again performed and the esophargus was ligated and then the whole stomach was removed.
The stomach was cut along a greater curvature and the contents thereof was transferred into a graduated centrifuge tube. After centrifugation at 3,000 rpm for 10 min., a volume of a gastric juice was measured and a part of its supernatant was titrated to pH 7 with 0.1N NaOH using a pH-stat (Radio meter).
The mean dose of the compounds which may reduce the volume of gastric juice (ml) and acidity (mEq/ml) of a group of five animals to 50% of that of the controls were designated respectively as ED50.

corpus of stomach = assay: Gastric cytoprotection effect (lesion length / ulcer index after oral 0.2N NaOH); assay type: in vivo; settings: 1 h, 30 min before oral 0.2N NaOH, lesion measured one hour later, read-out: Gastric cytoprotection effect ED50 (dose reducing the sore to 50% of control)
Source text: Gastric cytoprotection effect
Gastric cytoprotection effect was studied according to the method by A. Robert (Gastroenterology, 77(3), 443, (1979)). Thirty min. after oral administration of the compound according to the invention, 0.2N NaOH was orally applied to the animals.
One hour later, the animals were killed under anesthesia by chloroform. The stomach was removed and fixed in a solution of 5% formalin. After fixation, the stomach was cut along the greater curvature. A total length of the lesion appearing on the corpus of stomach was then measured and served as an ulcer index.
The dose of the compound which may reduce the sore to 50% of that of the control was designated as ED50.
The gastric cytoprotection effects of the compounds according to the invention, which is thus represented by ED50, are summarized in Table 1.

[2] = system: blood pressure of the carotid; assay: Hypotensive effect (carotid blood pressure, anesthetized rat); assay type: in vivo; settings: chloralose-anesthetized Wistar male rat, injected via catheter connected to femoral artery; read-out: Hypotensive effect ED25 (dose reducing blood pressure by 25 mmHg)
Method: A catheter was inserted to a carotid of the Wistar male rat under chloralose anesthesia. Another end of the catheter was connected to a polygraph with a pressure-transducer to detect a blood pressure of the carotid. The compound was injected via catheter connected to a femoral artery. The dose of the compound which may reduce the blood pressure in an amount of 25 mmHg was designated as ED25.

platelet aggregation = assay: Inhibiting effect of platelet aggregation (ADP-induced, human platelet-rich plasma); assay type: cell-based; settings: human PRP, compound added one minute before ADP
Method: Inhibiting effect of platelet aggregation
The blood taken from a human median cubital vein was centrifuged at 800 rpm for 10 min. and a supernatant thereof was used as a platelet-rich plasma (PRP). An aliquot of PRP thus obtained was put into a small tube, to which […] (ADP) was added to induce platelet aggregation. The extent of aggregation was determined by detecting a change in turbidity of the aliquot by an apparatus for measuring platelet aggregation (Rika-Denki, Tokyo). The compound was added one minute before the addition of ADP. The concentration of the compound which may reduce the platelet aggregation, 50% of the control was designated as IC50.

gastric acid secretion [3] = assay: Inhibiting effect of gastric acid secretion, perfused stomach, pentagastrin-stimulated (Ghosh & Schild); assay type: in vivo, male SD rat; settings: urethane-anesthetized SD rat, pentagastrin 0.05 μg/kg/min, injected through femoral vein; ratio of area index to that of PGE2
Method: as §1
A male SD rat was incised in the abdomen under anesthesia by urethane and the lumen of a stomach was perfused with a physiolosical saline solution through a double-cannula inserted into a lumen of the stomach. A pH of a draining gastric acid was monitored using a pH-meter (M. Ghosh, H. Schild, Br. J. Pharmacol. 13, 54 (1958)). The secretion of gastric acid was stimulated by a continuous infusion of the pentagastrin at a rate of 0.05 μg/kg/min. When the pH of gastric acid became stable value of about 4, the compound was injected through a femoral vein. As an index of the inhibiting effect of gastric acid secretion by the compound was calculated from the area surrounded by the curve drawn by the time course of the pH of gastric acid, from the point increase by the injection of the compound and to the point it came back to baseline. The index thus obtained was compared to that of PGE2 and a ratio therebetween was shown in Table 3, as a relative effect of the compound.

[4] = acidity (mEq/ml) to 50% of controls, read-out: Inhibiting effect of gastric acid secretion ED50, Acidity
[5] = volume (ml) to 50% of controls, read-out: Inhibiting effect of gastric acid secretion ED50, Volume of the gastric juice

SMILES	ED50 (gastric acid secretion [1]; [4]) [mg/kg]	ED50 (gastric acid secretion [1]; [5]) [mg/kg]	ED50 (corpus of stomach) [µg/kg]	ED (25 mmHg) [2] [µg/kg]	IC50 (platelet aggregation) [ng/mL]	Inhibiting effect of gastric acid secretion, Relative effect (PGE2 = 1) (gastric acid secretion [3])
CCCCC[C@H](O)/C=C/[C@@H]1[C@H]2c3cccc(OCC(=O)O)c3O[C@H]2C[C@H]1O (relative stereo) [Compound 156, 2,5,6,7-Tetranor-4-oxa-4,8-inter-m-phenylene PGI2]	2.33	0.33	11.3	0.46	0.56 (≈ 1.49 nM)	39
CCCCCC[C@H](O)/C=C/[C@@H]1[C@H]2c3cccc(OCC(=O)O)c3O[C@H]2C[C@H]1O (relative stereo) [Compound 160, 20a-Homo-2,5,6,7-tetranor-4-oxa-4,8-inter-m-phenylene PGI2]	0.45	0.097		0.23	0.41 (≈ 1.05 nM)	13
CC(C)[C@H](O)/C=C/[C@@H]1[C@H]2c3cccc(OCC(=O)O)c3O[C@H]2C[C@H]1O (relative stereo) [Compound 164, 16-Methyl-2,5,6,7,18,19,20-heptanor-4-oxa-4,8-inter-m-phenylene PGI2]	0.89	1.34	9.6		1.35 (≈ 3.87 nM)	12
CC(C)(C)[C@H](O)/C=C/[C@@H]1[C@H]2c3cccc(OCC(=O)O)c3O[C@H]2C[C@H]1O (relative stereo) [Compound 168, 16,16-Dimethyl-2,5,6,7,18,19,20-heptanor-4-oxa-4,8-inter-m-phenylene PGI2]			30.5	0.49	1.54 (≈ 4.25 nM)	3.5
CCC(C)(C)[C@H](O)/C=C/[C@@H]1[C@H]2c3cccc(OCC(=O)O)c3O[C@H]2C[C@H]1O (relative stereo) [Compound 172, 16,16-Dimethyl-2,5,6,7,19,20-hexanor-4-oxa-4,8-inter-m-phenylene PGI2]			4.6	0.72	2.1 (≈ 5.58 nM)	19
CCCCCC(C)(C)[C@H](O)/C=C/[C@@H]1[C@H]2c3cccc(OCC(=O)O)c3O[C@H]2C[C@H]1O (relative stereo) [Compound 184, 16,16-Dimethyl-20a-homo-2,5,6,7-tetranor-4-oxa-4,8-inter-m-phenylene PGI2]			2.3	0.5	24 (≈ 57.3 nM)	85
CCCCCCC(C)(C)[C@H](O)/C=C/[C@@H]1[C@H]2c3cccc(OCC(=O)O)c3O[C@H]2C[C@H]1O (relative stereo) [Compound 188, 16,16-Dimethyl-20a,20b-dihomo-2,5,6,7-tetranor-4-oxa-4,8-inter-m-phenylene PGI2]			2.8	1.5	6.9 (≈ 16 nM)	23
CCCCCCCC(C)(C)[C@H](O)/C=C/[C@@H]1[C@H]2c3cccc(OCC(=O)O)c3O[C@H]2C[C@H]1O (relative stereo) [Compound 192, 16,16-Dimethyl-20a,20b,20c-trihomo-2,5,6,7-tetranor-4-oxa-4,8-inter-m-phenylene PGI2]			3.9	0.59	8 (≈ 17.9 nM)	0.7
CCCC(C)(C)C[C@H](O)/C=C/[C@@H]1[C@H]2c3cccc(OCC(=O)O)c3O[C@H]2C[C@H]1O (relative stereo) [Compound 200, 17,17-Dimethyl-2,5,6,7-tetranor-4-oxa-4,8-inter-m-phenylene PGI2]			3.6	0.16	0.37 (≈ 0.915 nM)	3.0
CCCCC(C)[C@H](O)/C=C/[C@@H]1[C@H]2c3cccc(OCC(=O)O)c3O[C@H]2C[C@H]1O (relative stereo) [Compound 208, 16-Methyl-2,5,6,7-tetranor-4-oxa-4,8-inter-m-phenylene PGI2]	0.27	0.14	0.92	0.074	0.47 (≈ 1.2 nM)	45
CCCCCC(C)(O)/C=C/[C@@H]1[C@H]2c3cccc(OCC(=O)O)c3O[C@H]2C[C@H]1O (relative stereo) [Compound 210, 15-Methyl-2,5,6,7-tetranor-4-oxa-4,8-inter-m-phenylene PGI2]			109	0.89	30 (≈ 76.8 nM)	13
O=C(O)COc1cccc2c1O[C@H]1C[C@@H](O)[C@H](/C=C/[C@@H](O)CC3CCCC3)[C@@H]21 (relative stereo) [Compound 238, 16-cyclopentyl-2,5,6,7,17,18,19,20-octanor-4-oxa-4,8-inter-m-phenylene PGI2]			4.9	0.14	0.24 (≈ 0.618 nM)	11
Cc1ccccc1[C@H](O)/C=C/[C@@H]1[C@H]2c3cccc(OCC(=O)O)c3O[C@H]2C[C@H]1O (relative stereo) [Compound 266, 15-(o-methylphenyl)-2,5,6,7,16,17,18,19,20-nonanor-4-oxa-4,8-inter-m-phenylene PGI2]			31.2	0.32	2.3 (≈ 5.8 nM)	7.2
Cc1ccc([C@H](O)/C=C/[C@@H]2[C@H]3c4cccc(OCC(=O)O)c4O[C@H]3C[C@H]2O)cc1 (relative stereo) [Compound 270, 15-(p-methylphenyl)-2,5,6,7,16,17,18,19,20-nonanor-4-oxa-4,8-inter-m-phenylene PGI2]			25.5	0.12	1.6 (≈ 4.04 nM)	16
CC(C)(Cc1ccccc1)[C@H](O)/C=C/[C@@H]1[C@H]2c3cccc(OCC(=O)O)c3O[C@H]2C[C@H]1O (relative stereo) [Compound 297, 16,16-dimethyl-17-phenyl-2,5,6,7,18,19,20-heptanor-4-oxa-4,8-inter-m-phenylene PGI2]				0.34	13 (≈ 29.6 nM)	75
CCOCC(C)(C)[C@H](O)/C=C/[C@@H]1[C@H]2c3cccc(OCC(=O)O)c3O[C@H]2C[C@H]1O (relative stereo) [Compound 305, 16,16-Dimethyl-2,5,6,7-tetranor-4,18-dioxa-4,8-inter-m-phenylene PGI2]			13.1	0.55	90 (≈ 221 nM)	99
CCC[C@H](C)C[C@H](O)/C=C/[C@@H]1[C@H]2c3cccc(OCC(=O)O)c3O[C@H]2C[C@H]1O [Compound 213, 17-(S)-Methyl-2,5,6,7-tetranor-4-oxa-4,8-inter-m-phenylene PGI2]	0.23	0.087		0.023	0.075 (≈ 0.192 nM)	41
CCCC[C@H](C)C[C@H](O)/C=C/[C@@H]1[C@H]2c3cccc(OCC(=O)O)c3O[C@H]2C[C@H]1O [Compound 218, (17S)-17-Methyl-20a-homo-2,5,6,7-tetranor-4-oxa-4,8-inter-m-phenylene PGI2]			0.27	0.045	0.18 (≈ 0.445 nM)	

— patent publication US4775692A, “2,5,6,7-tetranor-4,8-inter-m-phenylene PGI2 derivatives” (Toray Industries, Inc., priority 1986, dated 1988)
